Data reported in patent US20220378740A1, “COMPOSITIONS AND METHODS OF MAKING EXPANDED HEMATOPOIETIC STEM CELLS USING DERIVATIVES OF CARBAZOLE” (Transfusion Health, LLC, priority 2019, published 2022).

How the values were obtained:
[1] = system: HSCs derived from cord blood; assay: Long-term (14 day) expansion of hematopoietic stem cells derived from cord blood; format: cell-based, human; details: 14 days in culture; Compound 2.001 at 10 μM, Compound 2.002 at 1 μM, Compound 2.003 at 10 μM
Protocol: (§1) CD34+ cells from cord blood were purchased from STEMCELL Technologies. Primary human CD34+ cells were isolated by the supplier from cord blood samples using positive immunomagnetic separation techniques. Cells were thawed and gradually brought to room temperature. Samples were washed, then placed in overnight culture in StemSpan with 100 ng/ml each of FLT3L, TPO, SCF, and IL-6. Eighteen to twenty-four hours later (day 1), cells were counted and immunophenotyped (flow cytometry on an Invitrogen Attune N×T cytometer).
(§2) All incubations for this experiment took place at 3%˜ oxygen (controlled by nitrogen) and […]. Following seven days of culture, cells from wells were collected and phenotypes were analyzed (flow cytometry on an Invitrogen Attune N×T cytometer).
Cells were cultured to seven days as described in Example 5. Following seven days in culture, 25% of cells from selected wells were passaged to 12-well plates (2 ml total volume), with conditions for these wells prepared as on day 1. Wells selected were: Compound 2.001 at 10 μM, Compound 2.002 at 1 μM, Compound 2.003 at 10 μM, and base conditions with vehicle control (DMSO). Cells were then allowed seven further days of expansion prior to analysis at day 14. Cell numbers calculated at day 14 account for the passaging of the cells at day seven.

[2] = system: CD34+ cells from cord blood; assay: Expansion of cord blood-derived CD34+ cells in culture, fold change days 1 to 7 (flow cytometry); format: cell-based, human; details: relative to vehicle control (DMSO), 3% oxygen
Protocol: as §1
Approximately 1000 live cells were plated into each well of 96-well plates (total volume 200 μl); exact cell numbers dispensed per well were quantified with flow cytometry for later calculations.
Media for testing compounds of Formula I, except for compound 2.015, was prepared using StemSpan SFEM (STEMCELL Technologies). Media for testing compound 2.015 was prepared using Alpha-MEM without phenol red (Gibco) with 10% (v/v) heat inactivated fetal bovine serum (FBS). All other treatments are the same for all tested compounds. Culture conditions also included an antibiotic solution that includes penicillin, streptomycin, and amphotericin B to avoid contamination. Additional media components and concentrations used for the compounds tested are described in Table 2.
as §2
The graphs in FIG. 1-5 report the fold change in cells between days 1 and 7. Each point in the figures reports the average fold change of the indicated number of replicates at the noted concentration of the compound of Formula I tested. Error bars display the maximum and minimum fold change measured at that concentration. The dashed line reports the expansive effect of the base conditions (i.e. vehicle control).
Table 3, below, summarizes the relative expansive effects of Compounds 2.001 to 2.004 and 2.015 at the indicated concentration. It is calculated as shown below: […]

[3] = 3.162 μM compound, StemSpan SFEM
[4] = 2.819 μM compound, Alpha-MEM without phenol red with 10% FBS

CC(=O)Nc1ccc2c(c1)[nH]c1ccccc12 [Compound 2.001, N-(9H-carbazol-2-yl)acetamide]
expansion of HSCs from cord blood in extended culture [1]: expand HSCs from cord blood for at least 14 days in culture
CD34 effect (relative expansive effect on CD34+ cells) ([2]; 10 μM compound, StemSpan SFEM): ++++ (1.8 ≤ × < 2.2)
CD90 effect (relative expansive effect on CD34+/CD133+/CD90+ cells) ([2]; 10 μM compound, StemSpan SFEM): +++++ (2.2 ≤×)

CC(C)(C)C(=O)Nc1ccc2c(c1)[nH]c1ccccc12 [Compound 2.002, N-(9H-carbazol-2-yl)-2,2-dimethylpropanamide]
expansion of HSCs from cord blood in extended culture [1]: expand HSCs from cord blood for at least 14 days in culture
CD34 effect (relative expansive effect on CD34+ cells) ([2]; 1 μM compound, StemSpan SFEM): ++++ (1.8 ≤ × < 2.2)
CD90 effect (relative expansive effect on CD34+/CD133+/CD90+ cells) ([2]; 1 μM compound, StemSpan SFEM): ++++ (1.8 ≤ × < 2.2)

CC(=O)Nc1ccc2c(c1)oc1ccccc12 [Compound 2.003, N-{8-oxatricyclo[7.4.0.0^2,7]trideca-1(13),2(7),3,5,9,11-hexaen-5-yl}acetamide]
expansion of HSCs from cord blood in extended culture [1]: expand HSCs from cord blood for at least 14 days in culture
CD34 effect (relative expansive effect on CD34+ cells) [2, 3]: ++++ (1.8 ≤ × < 2.2)
CD90 effect (relative expansive effect on CD34+/CD133+/CD90+ cells) [2, 3]: ++++ (1.8 ≤ × < 2.2)

CC(C)(C)C(=O)Nc1ccc2c(c1)oc1ccccc12 [Compound 2.004, 2,2-dimethyl-N-{8-oxatricyclo[7.4.0.0^2,7]trideca-1(13),2(7),3,5,9,11-hexaen-5-yl}propanamide]
CD34 effect (relative expansive effect on CD34+ cells) ([2]; 1 μM compound, StemSpan SFEM): +++ (1.6 ≤ × < 1.8)
CD90 effect (relative expansive effect on CD34+/CD133+/CD90+ cells) ([2]; 1 μM compound, StemSpan SFEM): ++ (1.2 ≤ × < 1.6)

COc1cc2c(cc1N)oc1ccccc12 [Compound 2.015]
CD34 effect (relative expansive effect on CD34+ cells) [2, 4]: + (1 < × < 1.2)
CD90 effect (relative expansive effect on CD34+/CD133+/CD90+ cells) [2, 4]: + (1 < × < 1.2)
